From PMC6224480, “Insights into Kinesin-1 Activation from the Crystal Structure of KLC2 Bound to JIP3” (Structure(London, England:1993), 2018)
No end group written: not given here. *: point of attachment. FITC = O=C1OC2(c3ccc(O)cc3Oc3cc(O)ccc32)c2ccc(NC(=S)*)cc21

How the values were obtained:
KLC2^TPR-myc = target: T1, KLC2^TPR-myc (Mus musculus, UniProt O88448); assay: Fluorescence anisotropy-based binding competition against FITC-LFP motif peptide; parameters: species or system murine; details: FITC-LFP peptide 300 nM, KLC2^TPR-myc 21 μM, Trp-JIP3^LZ two independent experiments, CSTN-WD1 one experiment
T1 construct: comprised murine KLC2 residues 191-480; His6-SUMO (N, cleaved yes); made in house; host or cells: E. coli BL21(DE3) Rosetta
Source text: Kinesin-1 activation by JIP3 requires JIP3^LZ binding to KLC^TPR ([Watt et al., 2015]). How does JIP3^LZ binding to the KLC^TPR relieve KLC regulation of the kinesin-1 molecule? Tryptophan-acidic cargoes activate kinesin-1 by releasing the KLC LFP motif from the KLC^TPR ([Yip et al., 2016]). […] We therefore wondered whether JIP3^LZ binding to the KLC2^TPR allosterically regulates interactions between KLC2^TPR and the LFP motif. We investigated this using an in vitro, fluorescence anisotropy-based binding competition assay with purified proteins and peptides ([Yip et al., 2016]). […] Thus, JIP3 activates kinesin-1 by a different mechanism to tryptophan-acidic cargoes.
The binding affinity between the FITC-labelled LFP-motif peptide and the KLC2^TPR-myc was measured essentially as described previously ([Yip et al., 2016]). FITC-labelled LFP motif peptide (300 nM) was incubated with 2-fold dilutions of KLC2^TPR-myc in assay buffer (0.1 M NaCl, 25 mM HEPES, 5 mM MgCl2, 1 mM TCEP, final pH 7.5) in triplicate in 384-well plates, for 1 hour at room temperature. Fluorescence measurements were recorded on a TecanSpark plate reader at excitation and emission wavelengths of 488 nm and 535 nm respectively. Fluorescence anisotropy values were calculated at each KLC2^TPR-myc concentration and the data were fitted with a fixed-slope dose response curve in Prism (GraphPad). […]

wild-type KLC2^TPR-myc = assay: ITC of Trp-JIP3^LZ or FITC-CSTN-WD2 peptide into wild-type KLC2^TPR-myc; type: binding, murine; details: n = 2
Description: (§1) The Trp-JIP3^LZ protein used for CD and ITC experiments was prepared as described above for the JIP3^LZ, with the following modifications. Following 3C cleavage, contaminating GST3C was removed by incubation of the eluate with fresh, pre-equilibrated glutathione sepharose 4B resin for 2 hours at room temperature. The Trp-JIP3^LZ was then further purified by size exclusion chromatography using a Superdex 75 16/600 column equilibrated in 100 mM NaCl, 25 mM HEPES, 1 mM TCEP (final pH 7.5). Wild-type/mutant KLC2^TPR-myc samples used for CD and ITC experiments were prepared as described above the KLC2^TPR used in crystallographic studies. The Trp-JIP3^LZ and KLC2^TPR-myc samples used in the fluorescence anisotropy-based binding competition assays were prepared as for those used in the CD and ITC studies, but the final size-exclusion step was performed in 100 mM NaCl, 25 mM HEPES, 5mM MgCl2, 1 mM TCEP (final pH 7.5).
To study binding of the Trp-JIP3^LZ and FITC-CSTN-WD2 peptide to wild-type and mutant KLC2^TPR-myc, the recombinant proteins were prepared by size exclusion chromatography in 0.1 M NaCl, 25 mM HEPES, 1 mM TCEP, final pH 7.5. Wild-type or mutant KLC2^TPR-myc at 44-50 μM were placed in the cell. The Trp-JIP3^LZ was used as the titrant at dimer concentrations of 297-330 μM. The FITC-CSTN-WD2 peptide was used as the titrant at a concentration of 380 μM. The peptide concentration was determined by measuring the absorbance at 483 nm and using a molar extinction coefficient of 68,000 M^-1cm^-1. ITC experiments were performed as described above with injections spaced 120-150 s apart. Thermograms were integrated and corrected for heats of dilution using NITPIC (http://biophysics.swmed.edu/MBR/software.html). The resulting isotherms were analysed in SEDPHAT. Data for the Trp-JIP3^LZ as titrant were fitted with the A + B + B → AB + B → ABB model, whilst binding of the FITC-CSTN-WD2 peptide was analysed using the A + B → AB model. Between 2 and 3 experiments were performed for each titrand/titrant pair. For each titrand/titrant pair, the isotherms from the experiments were globally fitted with the relevant model. […] During fitting, the FITC-CSTN-WD2 peptide concentrations consistently refined to values around 30% greater than the measured value of 380 μM, with Napp values around 0.7 (Table S2). We ascribe this to an under-quantification of the FITC-CSTN-WD2 peptide concentration since the peptide contains a single tryptophan-acidic motif, and the concentration values for experiments with Trp-JIP3^LZ as ligand refined close to their measured values.

[1] = test system: KLC2^TPR-myc Tyr^208Ala (Y208A); assay: ITC of FITC-CSTN-WD2 peptide into Y208A KLC2^TPR-myc; type: binding, murine; details: n = 2
Source text: (§2) The KLC2^TPR construct used in this work comprised murine KLC2 residues 191-480, which is similar to those used in previous studies ([Nguyen et al., 2017], [Zhu et al., 2012]) but with a slightly longer N-terminal region to include residues 191-194, which are very highly conserved in Bilaterian KLCs. To construct the pMW-His6-SUMO-KLC2^TPR vector, the sequence encoding KLC2^TPR (residues 191-480) was amplified by PCR from a murine template ([Dodding et al., 2011]) and cloned into the NotI/EcoRI sites of pMW his-SUMO. The His6-SUMO- KLC2^TPR-myc vectors were constructed likewise, but using a reverse primer sequence encoding the KLC^TPR C-terminal region up to residue 480, a BglII site, and an in-frame myc-tag sequence, thus fusing the amino acid sequence […] to the KLC2^TPR C-terminus. KLC2^TPR-myc mutants (Thr^200Asp, Tyr^208Ala, Gln^223Lys and Arg^312Glu) were generated by overlap PCR.
as §1, with “Wild-type/mutant KLC2^TPR-myc samples used for CD and ITC experiments were prepared as described above the KLC2^TPR used in crystallographic studies.” left out
(§3) To study binding of the Trp-JIP3^LZ and FITC-CSTN-WD2 peptide to wild-type and mutant KLC2^TPR-myc, the recombinant proteins were prepared by size exclusion chromatography in 0.1 M NaCl, 25 mM HEPES, 1 mM TCEP, final pH 7.5. […] The peptide concentration was determined by measuring the absorbance at 483 nm and using a molar extinction coefficient of 68,000 M^-1cm^-1. […] The resulting isotherms were analysed in SEDPHAT. Data for the Trp-JIP3^LZ as titrant were fitted with the A + B + B → AB + B → ABB model, whilst binding of the FITC-CSTN-WD2 peptide was analysed using the A + B → AB model. […] During fitting, the FITC-CSTN-WD2 peptide concentrations consistently refined to values around 30% greater than the measured value of 380 μM, with Napp values around 0.7 (Table S2). We ascribe this to an under-quantification of the FITC-CSTN-WD2 peptide concentration since the peptide contains a single tryptophan-acidic motif, and the concentration values for experiments with Trp-JIP3^LZ as ligand refined close to their measured values.

[2] = test system: KLC2^TPR-myc Thr^200Asp (T200D); assay: ITC of FITC-CSTN-WD2 peptide into T200D KLC2^TPR-myc; type: binding, murine; details: 25°C, 0.1 M NaCl, n = 3
Source text: as §2
The Trp-JIP3^LZ protein used for CD and ITC experiments was prepared as described above for the JIP3^LZ, with the following modifications. […] The Trp-JIP3^LZ and KLC2^TPR-myc samples used in the fluorescence anisotropy-based binding competition assays were prepared as for those used in the CD and ITC studies, but the final size-exclusion step was performed in 100 mM NaCl, 25 mM HEPES, 5mM MgCl2, 1 mM TCEP (final pH 7.5).
as §3, with “We ascribe this to an under-quantification of the FITC-CSTN-WD2 peptide concentration since the peptide contains a single tryptophan-acidic motif, and the concentration values for experiments with Trp-JIP3^LZ as ligand refined close to their measured values.” left out

KLC2 L220Y mutant = assay: ITC of FITC-CSTN-WD2 peptide into L220Y KLC2^TPR-myc; type: binding, murine; details: 25°C, 0.1 M NaCl, n = 2
Description: as §1
as §3, with “7.5. Wild-type or mutant KLC2^TPR-myc at 44-50 μM were placed in the cell. The Trp-JIP3^LZ was used as the titrant at dimer concentrations of 297-330 μM.” for “7.5.”

[3] = test system: wild-type and mutant KLC2^TPR-myc; assay: ITC with wild-type and/or TPR1-mutant KLC2^TPR-myc (collective statements); type: binding, murine
Description: as §1
To study binding of the Trp-JIP3^LZ and FITC-CSTN-WD2 peptide to wild-type and mutant KLC2^TPR-myc, the recombinant proteins were prepared by size exclusion chromatography in 0.1 M NaCl, 25 mM HEPES, 1 mM TCEP, final pH 7.5. […] The peptide concentration was determined by measuring the absorbance at 483 nm and using a molar extinction coefficient of 68,000 M^-1cm^-1. […] The resulting isotherms were analysed in SEDPHAT. […]

[4] = FITC-CSTN-WD2, 25°C, 0.1 M NaCl, pH 7.5, global fit
[5] = 25°C, 0.1 M NaCl, pH 7.5, global fit
[6] = 25 mM HEPES, 1 mM TCEP, pH 7.5, A + B → AB model, global fit

T1 sequence (O88448 191-480): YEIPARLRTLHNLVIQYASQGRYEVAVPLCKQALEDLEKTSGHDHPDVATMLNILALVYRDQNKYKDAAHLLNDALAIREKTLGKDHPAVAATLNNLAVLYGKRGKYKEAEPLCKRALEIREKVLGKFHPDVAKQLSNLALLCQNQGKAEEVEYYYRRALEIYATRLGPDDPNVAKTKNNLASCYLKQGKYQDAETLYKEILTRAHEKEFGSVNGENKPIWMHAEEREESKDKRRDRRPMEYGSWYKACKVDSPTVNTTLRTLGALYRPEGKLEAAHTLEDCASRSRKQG

Substance	effect on binding of KLC2^TPR-myc to FITC-labeled LFP motif peptide (KLC2^TPR-myc)	K, macroscopic association constant (wild-type KLC2^TPR-myc; FITC-CSTN-WD2, 25°C, 0.1 M NaCl, 25 mM HEPES, 1 mM TCEP, pH 7.5, A + B → AB model, global fit)	-TΔS (wild-type KLC2^TPR-myc; [4])	ΔH (wild-type KLC2^TPR-myc; [4])	Napp, apparent binding stoichiometry (wild-type KLC2^TPR-myc; FITC-CSTN-WD2, mean ± standard deviation)	K, macroscopic association constant ([1]; 25°C, 0.1 M NaCl, 25 mM HEPES, 1 mM TCEP, pH 7.5, A + B → AB model, global fit)	-TΔS [1, 5]	ΔH [1, 5]	Napp, apparent binding stoichiometry ([1]; mean ± standard deviation)	K, macroscopic association constant [2, 6]	-TΔS ([2]; pH 7.5, global fit)	ΔH ([2]; pH 7.5, global fit)	K, macroscopic association constant (KLC2 L220Y mutant; [6])	-TΔS (KLC2 L220Y mutant; pH 7.5, global fit)	ΔH (KLC2 L220Y mutant; pH 7.5, global fit)	Napp values ([3]; FITC-CSTN-WD2, wild-type and mutant KLC2^TPR-myc, ascribed to under-quantification of the peptide concentration)	effect of the three TPR1 mutations on binding ([3]; all three mutations in TPR1 of KLC2^TPR-myc, ITC)
Ac-GKENEMDWDDSALTITVN [CSTN-WD1]	blocked binding	–	–	–	–	–	–	–	–	–	–	–	–	–	–	–	–
{FITC}-TRQLEWDDSTL-OH [FITC-CSTN-WD2, FITC-labeled tryptophan-acidic calsyntenin-1 peptide]	–	0.820 µM⁻¹	-3.762 kcal/mol	-4.305 kcal/mol	0.67 ± 0.08	0.541 µM⁻¹	-4.463 kcal/mol	-3.358 kcal/mol	0.67 ± 0.07	0.845 µM⁻¹	-3.911 kcal/mol	-4.174 kcal/mol	0.739 µM⁻¹	-4.104 kcal/mol	-3.902 kcal/mol	around 0.7	only minor effects on binding
